Where two headings read alike, the source gives them in different places.
What was measured:
[1] = test system: platelet GPIIbIIIa; test: SFLLR-induced GPIIbIIIa activation (PAC-1 antibody, flow cytometry); assay type: cell-based, human; settings: PAC-1 antibodies
Description: In order to assay platelet activation by cell surface marker expression, fresh PRP is isolated from donors who have not ingested aspirin for two weeks prior to donation. PRP (40 μl) is incubated with known or suspected inhibitor in DMSO or DMSO alone for 15 min. The sample is then incubated with the indicated agonist (e.g., SFLLR) for 10 min. Following incubation of the sample with the indicated agonist, 10 μl of reaction mixture is transferred to 5 μl of phycoerythrin (PE)-conjugated AC 1.2 anti-P-selectin antibody (for assessment of P-selectin surface expression) or fluorescein isothiocyanate (FITC)-conjugated PAC-1 antibody (for assessment of GPIIbIIIa activation). PBS (500 μl) is added to the sample after a 20 min incubation and the platelets are analyzed immediately by flow cytometry. Flow cytometry can be performed using, for example, a Becton-Dickinson FACSCalibur flow cytometer or its equivalent. Fluorescent channels are set at logarithmic gain. Ten thousand particles are acquired for each sample. A 530/30 band pass filter is used for FL-1 fluorescence. A 585/42 band pass filter is used for FL-2 fluorescence. FITC is measured in the FL-1 channel and PE is measured in the FL-2 channel. Data are analyzed using, for example, CellQuest software on a Macintosh PowerPC, or their equivalents.
Compounds were also tested by flow cytometry for the inhibition of SFLLR-induced GPIIbIIIa activation and P-selectin expression. In these experiments, freshly obtained PRP was prepared from healthy volunteers who had not ingested aspirin for two weeks prior to donation. Forty μl of PRP was incubated with inhibitor in DMSO or DMSO alone for 15 min. The sample was then incubated with the indicated agonist for 10 min. Following incubation of the sample with the indicated agonist, 10 μl of reaction mixture was transferred to 5 μl of PE-conjugated AC1.2 anti-P-selectin antibody (for assessment of P-selectin surface expression) or FITC-conjugated PAC-1 antibody (for assessment of GPIIbIIIa activation). PBS (500 μl) was added to the sample after a 20 min incubation and the platelets were analyzed immediately by flow cytometry. Flow cytometry was performed using a Becton-Dickinson FACSCalibur flow cytometer. Fluorescent channels were set at logarithmic gain. Ten thousand particles were acquired for each sample. A 530/30 band pass filter was used for FL-1 fluorescence. A 585/42 band pass filter was used for FL-2 fluorescence. FITC was measured in the FL-1 channel and PE was measured in the FL-2 channel. Data were analyzed using CellQuest software on a MacIntosh PowerPC.

[2] = test system: platelet accumulation into thrombus; assay type: in vivo
Excerpt: A preferred animal model involves intravital microscopy of laser-induced thrombi. The method is described by Rosen et al., 2001, Am J Pathol 158, 1613-1622, which is incorporated herein by reference. Minor variations of that method were employed as described below.
Experimental mice are pre-anesthetized and surgically prepared. A tracheal tube is placed to facilitate breathing and the jugular vein is canulated to allow for maintenance of anesthetic and introduction of compound. The cremaster muscle is then exteriorized. The muscle is affixed over a glass slide, allowing illumination from below. A steady drip of a sodium-bicarbonate buffered salt solution is maintained throughout the experiment to keep the exposed muscle moist. Blood flow in the muscle is visualized using a 40× water immersion lens and epi-illuminated with an appropriately filtered light source. Alexa 488-labeled anti-mouse CD41 antibody is injected through the jugular canulus to label platelets in vivo.
Thrombosis is initiated by damaging the vessel wall (of a 30 μm vessel) with a laser pulse from a MicroPoint LASER attached to the microscope. A LASER pulse is delivered, causing damage in an area smaller than 1 μm. The recruitment of platelets to the thrombus is then monitored by the accumulation of (activated) Alexa 488-labeled platelets at the ablation site using fluorescence microscopy, and the process is recorded digitally. The method thus permits in vivo analysis of platelet activation as measured by platelet aggregation and thrombosis.
The degree of embolization in an untreated mouse can be quantified using software for image analysis, e.g., BioQuant True Color Windows (Biometrics, Nashville, Tenn.), as described in Rosen et al., 2001, supra. The software package permits the determination of the “integrated optical density” or IOD of the thrombus.
Using quantitative intravital fluorescence videomicroscopy with high temporal resolution (111 images/second), the effect of PDE3 inhibition on the platelet recruitment into thrombi was directly observed over time. Platelets were fluorescently labeled by infusing rat-anti-mouse CD41 and Alexa 488-anti-rat IgG through a cannulated jugular vein. The cremaster microvasculature was exposed and mapped and suitable arteriole segments were selected for laser-induced injury. A series of control injuries were generated prior to infusion of the inhibitory compound. The power and the number of laser pulses required to generate each thrombus was recorded. Platelet accumulation to the thrombi following laser ablation was recorded using digital videomicroscopy. The thrombus total fluorescence in each frame of the videos was analyzed using Slidebook software for digital videomicroscopy. The pyridazinone compound was then infused. Following a 15 minute incubation, a series of experimental injuries were generated 250 μm proximal, with relationship to blood flow, of the first injury and the resultant thrombi were recorded. The power and the number of pulses required to induce the control thrombus was used to induce the experimental thrombus. The control and experimental thrombi constituting a pair were compared for statistical analysis. The total fluorescence intensity of the thrombi before and after the infusion of pyridazinone compound was recorded.
Images from a representative experiment of the recruitment of fluorescently-labeled […] platelets into a growing thrombus over time is shown in FIG. 9A.

[3] = test system: platelet protein palmitoylation; test: Incorporation of [3H]-palmitate into platelet proteins; assay type: cell-based; settings: 100 μM compound; 20 μM or 200 μM SFLLRN
Description: Platelets were labeled with [^3H]-palmitate for 2 hours in the absence (lanes 1, 2, and 3) or presence (lanes 4, 5, and 6) of 100 μM JF081204{5C} for 2 hours. Labeled platelets were then incubated with 0 μM ([…]), 20 μM (lanes 2 and 5), or 200 μM SFLLRN (lanes 3 and 6). Platelet samples were lysed, separated by SDS-PAGE, Western blotted, and visualized with a tritium imager screen (Panel a). The activation of platelets by SFLLRN led to an increase incorporation of [^3H]-palmitate into platelet proteins, whereas the presence of JF081204{5C} inhibited this activation-dependent [^3H]-palmitate incorporation (Panel b). Western blot membrane from panel (a) was stained with Ponceau S to visualize proteins in the platelet lysates.
The incorporation of [^3H]-palmitate into platelet intracellular proteins was examined to determine the effect of JF081204{5C} on platelet protein palmitoylation. […] Exposure of platelets to either 20 μM or 200 μM SFLLRN increased the intensity of the labeling. Incubation of platelets with 100 μM of JF081204{5C} inhibited the increase in [^3H]-palmitate incorporation induced by either 20 μM or 200 μM SFLLRN.

SMILES: CC1CC(=O)NN=C1c1ccc(N)c([N+](=O)[O-])c1 (stereo not drawn) [6-(4-Amino-3-nitro-phenyl)-5-methyl-4,5-dihydro-2H-pyridazin-3-one]
- SFLLR-induced αIIbβ3 activation [1]: inhibited
- Inhibition of maximal rate of platelet recruitment ([2]; 0.3 mg/kg): 37%
- Median Stabilized/Maximum platelet accumulation ([2]; 0.3 mg/kg): 36%
- Inhibition of maximum platelet accumulation ([2]; 0.6 mg/kg): 61%
- Median Stabilized/Maximum platelet accumulation ([2]; 0.6 mg/kg): 41%
- Stabilized platelet accumulation ([2]; 0.6 mg/kg (P<0.05) and 1.2 mg/kg (P<0.01)): dose-dependent inhibition
- Maximum platelet accumulation compared to absence of compound ([2]; 0.6 mg/kg and 1.2 mg/kg (P<0.05)): statistically significant decrease
- Inhibition of stabilized platelet accumulation ([2]; 0.6 mg/kg, 300 seconds after laser injury): 54%
- Inhibition of maximal rate of platelet recruitment ([2]; 1.2 mg/kg): 56%
- Inhibition of maximum platelet accumulation ([2]; 1.2 mg/kg): 56%
- Median Stabilized/Maximum platelet accumulation ([2]; 1.2 mg/kg): 33%
- Inhibition of stabilized platelet accumulation ([2]; 1.2 mg/kg, 300 seconds after laser injury): 72%
- Median total thromboembolization, % of the maximum platelet accumulation of control thrombi ([2]; 1.2 mg/kg, p<0.04): 1.0%
- Thromboembolization ([2]; after infusion of 1.2 mg/kg): significantly reduced
- Reduction of embolization ([2]; after injection, laser-induced thrombus): greater than 80%
- Inhibition of thrombus formation ([2]; laser-induced thrombosis, P<0.01): 72%
- Thromboembolization ([2]; same mouse model, dose not stated): inhibited

SMILES: CCCCCn1c2c(c(=N)c3ccccc31)CCC2 [JF081204{5C}]
- Increase in [3H]-palmitate incorporation induced by SFLLRN [3]: inhibited
- Time for thrombus to achieve 50% maximum platelet accumulation / onset of platelet accumulation ([2]; 1 mg/kg (P<0.001), 3 mg/kg (P<0.05), 6 mg/kg (P<0.001)): statistically significant delay
- Platelet accumulation over stages of thrombus formation ([2]; 1 mg/kg, 3 mg/kg, and 6 mg/kg): inhibited at all stages
- Median of maximum platelet accumulation compared to absence of compound ([2]; 3 mg/kg (P<0.002) and 6 mg/kg (P<0.02)): statistically significant decrease
- Median stabilized platelet accumulation ([2]; 3 mg/kg (P<0.01) and 6 mg/kg (P<0.001)): dose-dependent inhibition
- Inhibition of maximum platelet accumulation ([2]; dose-dependent, 1-6 mg/kg): up to 80%
- Inhibition of stabilized platelet accumulation ([2]; dose-dependent, 5 minutes following laser injury): up to 75%

Reference: patent US20070060605A1, “Compositions and methods for inhibiting platelet activation and thrombosis” (priority 2001, published 2007)
